Columns and labels:
TRAP1 enzyme = target: T1, TRAP1 enzyme (Homo sapiens, UniProt Q12931); experiment: ADP Glo assay of TRAP1 ATPase activity; type: biochemical
T1 construct: 150 nM Trap1 enzyme was incubated with various concentrations of the test compound
T1 sequence (Q12931 60-704): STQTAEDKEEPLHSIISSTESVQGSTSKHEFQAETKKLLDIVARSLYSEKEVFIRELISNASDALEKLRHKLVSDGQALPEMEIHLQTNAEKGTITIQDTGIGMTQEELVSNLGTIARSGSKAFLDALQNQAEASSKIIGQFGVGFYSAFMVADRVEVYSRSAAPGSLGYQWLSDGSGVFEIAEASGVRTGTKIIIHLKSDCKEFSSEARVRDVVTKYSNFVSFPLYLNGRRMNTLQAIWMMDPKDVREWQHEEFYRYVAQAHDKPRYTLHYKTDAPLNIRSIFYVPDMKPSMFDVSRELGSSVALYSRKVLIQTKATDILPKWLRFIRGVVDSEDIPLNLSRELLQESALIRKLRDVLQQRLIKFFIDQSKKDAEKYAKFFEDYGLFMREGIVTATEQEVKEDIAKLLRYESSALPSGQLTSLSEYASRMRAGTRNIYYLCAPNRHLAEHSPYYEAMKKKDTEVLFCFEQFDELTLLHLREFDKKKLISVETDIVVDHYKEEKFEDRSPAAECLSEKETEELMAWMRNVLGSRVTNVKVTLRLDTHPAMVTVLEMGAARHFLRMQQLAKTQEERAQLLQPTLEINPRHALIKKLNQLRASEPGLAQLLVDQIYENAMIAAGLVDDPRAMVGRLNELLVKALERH
In short: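 Compound (0.79–100 μM) was preincubated 30 min at 37° C with 150 nM TRAP1 in 25 mM Pipes pH 7.5, 40 mM KCl, 0.05 mM MgCl2. Reaction started with 20 μM ATP, 60 min at 37° C. ADP measured by luminescence against a standard curve; activation fitted sigmoidally for EC50 and Emax.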

[1] = system: tamoxifen-induced polycystic kidney disease model (Ksp-TamCre×PkdlLox); experiment: Tamoxifen-induced polycystic kidney disease mouse model; type: in vivo; conditions: compound 1206 10 mg/kg po QD 14d
Protocol: Compound 1206 (10 mg/kg po, QD dosing for 14d, n=13/group) was assessed in a tamoxifen-induced polycystic kidney disease model (Ksp-TamCre×PkdlLox; Human Molecular Genetics, 2007, Vol. 16, No. 24, 3188-3196). A negative control group induced with tamoxifen (Vehicle) and a negative control group not induced with tamoxifen (No Tam) were included. A positive control group was dosed with everolimus. Mice were dosed orally on both PND 10, 11 with 25 mg/kg tamoxifen. Oral dosage of vehicle, compound 1206, and everolimus started from PND 14 onwards to PND 27. The readouts of this study were body weight, kidney weight, BUN levels and histopathology assessment including cyst index.
The fixated kidney half was processed for paraffin embedding and further pathological assessment after hematoxylin-eosin staining. One piece of each H-E stained kidney half was observed by a board certified pathologist, who read a cross section of the kidney. For each kidney one section was evaluated. From this section an overview photo was taken (2X) and used to calculate the cystic index. The cystic areas were identified by a color thresholding method using an image analysis system (Image software, public domain software, NIH, Bethesda, Md.). The threshold area was calculated within a defined ROI (region of interest) representing the total area analyzed. This area represents at least 70-80% of the entire kidney section. The cystic index (CI) is defined as the percentage of the area of cysts lumen (in pixels) over the total kidney area in the selected ROI (in pixels).

mIMCD3 Pkd1 KO cells = experiment: Mouse cell derived cyst assay; type: cell-based; conditions: Pkd 1 KO mouse cell derived cyst forming assay; FIG. 16
Protocol: Mouse cell derived cyst assays were performed as described in Booij, Tijmen H et al., SLAS discovery: advancing life sciences R & D vol. 22.8 (2017): 974-984, or as described below.
Murine inner medullary collecting duct cell line (mIMCD3 Pkd1^−/− cells) • mIMCD3 Pkd1 KO cells were seeded in 384 wells plates in extracellular matrix. • 4 days after seeding, cultures were co-exposed to treatments and stimuli (2.5 μM forskolin); • After 72 h, cultures were fixed, stained for nuclei and actin cytoskeleton and imaged with 4× magnification; and • Image analysis of the 3D stack was done using Ominer™ image analysis software.

[2] = compared with tamoxifen-induced vehicle control group

- EC50 (TRAP1 enzyme; concentration for half maximal activation, read-out: ADP GLO DRC: GeoMean EC50): < 10 µM
- Emax (TRAP1 enzyme; maximal percent activation, read-out: ADP GLO DRC: Mean Emax): 119 to 159%
SMILES: COc1ncc(NC(=O)c2ccc3c(c2)n(C)c(=O)n3C)cc1S(=O)(=O)Nc1ccc(Cl)cc1 [compound 1206, N-(5-(N-(4-chlorophenyl)sulfamoyl)-6-methoxypyridin-3-yl)-1,3-dimethyl-2-oxo-2,3-dihydro-1H-benzo[d]imidazole-5-carboxamide]
- 2 KW/BW ratio (kidney weight/body weight) ([1]; compared to tamoxifen-induced vehicle control group): significantly lower
- cystic index [1, 2]: significantly lower
- urea levels (BUN) [1, 2]: significantly lower
- cyst formation (mIMCD3 Pkd1 KO cells): preventing cyst formation

From patent US20230159509A1 (Amathus Therapeutics, Inc., priority 2020, published 2023)
